Measured values taken from patent publication US7067619B2, “Integrin-binding peptides” (La Jolla Cancer Research Foundation, priority 1993, dated 2006).
Bridge positions count the residues as written; N and C are the ends. Peptide text beside a SMILES is read from it.

Legend:
αvβ5 integrin = αvβ5 integrin (Homo sapiens, UniProt P06756+P18084); assay: Inhibition of peptide-displaying phage binding to αvβ5 integrin by synthetic peptides; set-up: The αvβ3, αvβ5 and α5β1 integrins were isolated from human placental extracts; from tissue; host or cells: human placenta; conditions: more potent than *CRGDC*; FIG. 10
αvβ5 integrin, sequence (P06756 31-889 limits assumed): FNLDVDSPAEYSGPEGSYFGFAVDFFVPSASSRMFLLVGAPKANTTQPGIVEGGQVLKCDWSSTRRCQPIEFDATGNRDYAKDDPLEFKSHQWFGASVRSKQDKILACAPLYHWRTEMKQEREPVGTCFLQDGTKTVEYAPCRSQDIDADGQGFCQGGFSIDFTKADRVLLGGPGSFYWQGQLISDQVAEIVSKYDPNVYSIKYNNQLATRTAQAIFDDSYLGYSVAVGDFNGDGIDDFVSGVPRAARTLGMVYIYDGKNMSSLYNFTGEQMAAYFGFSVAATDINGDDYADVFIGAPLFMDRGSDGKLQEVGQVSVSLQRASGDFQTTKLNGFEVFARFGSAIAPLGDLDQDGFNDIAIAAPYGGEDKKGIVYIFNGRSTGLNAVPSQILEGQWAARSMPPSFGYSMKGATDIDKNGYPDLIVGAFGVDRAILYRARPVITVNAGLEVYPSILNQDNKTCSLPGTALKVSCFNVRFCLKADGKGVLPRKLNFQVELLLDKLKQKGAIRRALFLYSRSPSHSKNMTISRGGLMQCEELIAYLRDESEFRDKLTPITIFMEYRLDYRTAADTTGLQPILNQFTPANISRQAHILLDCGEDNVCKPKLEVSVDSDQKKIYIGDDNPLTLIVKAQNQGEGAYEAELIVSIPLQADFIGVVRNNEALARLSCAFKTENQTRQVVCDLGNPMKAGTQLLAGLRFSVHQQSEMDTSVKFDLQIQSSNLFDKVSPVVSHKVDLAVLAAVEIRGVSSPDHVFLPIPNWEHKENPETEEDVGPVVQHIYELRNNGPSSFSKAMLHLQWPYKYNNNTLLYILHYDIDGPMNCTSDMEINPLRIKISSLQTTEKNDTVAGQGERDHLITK
αvβ5 integrin, sequence (P06756 891-1048 partner limits assumed): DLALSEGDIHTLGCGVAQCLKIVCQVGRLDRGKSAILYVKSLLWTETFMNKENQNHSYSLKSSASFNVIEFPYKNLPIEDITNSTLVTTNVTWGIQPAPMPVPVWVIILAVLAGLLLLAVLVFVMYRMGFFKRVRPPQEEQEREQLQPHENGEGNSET
αvβ5 integrin, sequence (P18084 24-799): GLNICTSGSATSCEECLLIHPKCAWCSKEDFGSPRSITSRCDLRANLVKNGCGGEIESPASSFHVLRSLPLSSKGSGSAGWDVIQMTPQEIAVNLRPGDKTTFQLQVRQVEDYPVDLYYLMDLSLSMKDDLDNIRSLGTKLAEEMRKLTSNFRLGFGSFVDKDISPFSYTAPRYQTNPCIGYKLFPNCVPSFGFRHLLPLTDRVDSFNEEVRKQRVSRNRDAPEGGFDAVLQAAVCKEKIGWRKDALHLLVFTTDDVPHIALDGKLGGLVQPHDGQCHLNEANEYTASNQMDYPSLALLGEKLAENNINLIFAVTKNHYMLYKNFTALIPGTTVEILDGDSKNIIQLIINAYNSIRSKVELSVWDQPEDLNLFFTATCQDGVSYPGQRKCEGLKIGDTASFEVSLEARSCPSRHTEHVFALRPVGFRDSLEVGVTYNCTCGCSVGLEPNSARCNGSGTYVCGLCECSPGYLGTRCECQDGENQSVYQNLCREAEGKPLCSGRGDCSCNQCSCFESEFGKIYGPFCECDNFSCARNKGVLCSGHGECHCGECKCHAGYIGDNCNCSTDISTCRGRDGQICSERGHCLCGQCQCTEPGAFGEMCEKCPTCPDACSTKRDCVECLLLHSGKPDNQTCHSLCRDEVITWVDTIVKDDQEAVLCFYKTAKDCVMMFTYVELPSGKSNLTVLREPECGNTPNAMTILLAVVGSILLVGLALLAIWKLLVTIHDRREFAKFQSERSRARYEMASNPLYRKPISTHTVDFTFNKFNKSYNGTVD
Description: Phage containing the […] [SEQ ID NO:10] sequence were incubated for 1 hour in integrin-coated wells in the presence of the competing peptides or dimethyl sulfoxide solvent as a control. The bound phage were determined as described herein.
(§1) In addition, most of the phage-binding activity in the αvβ3 preparation was captured into microliter wells coated with antibodies against the αv or β3 subunits as described previously (Koivunen et al., J. Biol. Chem., 268:20205–10 (1993). The αIIbβ3 integrin was isolated from outdated platelets (Pytela et al., Science, 231:1559–1562 (1986)).
(§2) Binding of individual cloned phage to integrins was studied in microliter wells as described in Koivunen et al., J. Cell. Biol., 124:373–380 (1994). Phage binding to α5β1 and αvβ3 were assayed in TBS buffer containing 1% BSA and 1 mM MnCl2 and binding to αvβ5 in the presence of 1 mM CaCl2. Phage that were bound were determined by their ability to infect F-pilus positive K91kan bacteria. Bacteria were grown overnight in microliter wells in the presence of tetracycline and the absorbance indicative of bacterial growth was read at 600 nm with an ELISA plate reader.

α5β1 integrin [1] = molecular target: T1, α5β1 integrin (Homo sapiens, UniProt P05556+P08648); assay: Inhibition of 125I-fibronectin binding to α5β1 integrin by competing peptides; conditions: 1 hour, compared with cyclic CRGDC peptide, FIG. 1
T1 construct: The αvβ3, αvβ5 and α5β1 integrins were isolated from human placental extracts; from tissue; host or cells: human placenta
T1 sequence (P08648 42-894 limits assumed): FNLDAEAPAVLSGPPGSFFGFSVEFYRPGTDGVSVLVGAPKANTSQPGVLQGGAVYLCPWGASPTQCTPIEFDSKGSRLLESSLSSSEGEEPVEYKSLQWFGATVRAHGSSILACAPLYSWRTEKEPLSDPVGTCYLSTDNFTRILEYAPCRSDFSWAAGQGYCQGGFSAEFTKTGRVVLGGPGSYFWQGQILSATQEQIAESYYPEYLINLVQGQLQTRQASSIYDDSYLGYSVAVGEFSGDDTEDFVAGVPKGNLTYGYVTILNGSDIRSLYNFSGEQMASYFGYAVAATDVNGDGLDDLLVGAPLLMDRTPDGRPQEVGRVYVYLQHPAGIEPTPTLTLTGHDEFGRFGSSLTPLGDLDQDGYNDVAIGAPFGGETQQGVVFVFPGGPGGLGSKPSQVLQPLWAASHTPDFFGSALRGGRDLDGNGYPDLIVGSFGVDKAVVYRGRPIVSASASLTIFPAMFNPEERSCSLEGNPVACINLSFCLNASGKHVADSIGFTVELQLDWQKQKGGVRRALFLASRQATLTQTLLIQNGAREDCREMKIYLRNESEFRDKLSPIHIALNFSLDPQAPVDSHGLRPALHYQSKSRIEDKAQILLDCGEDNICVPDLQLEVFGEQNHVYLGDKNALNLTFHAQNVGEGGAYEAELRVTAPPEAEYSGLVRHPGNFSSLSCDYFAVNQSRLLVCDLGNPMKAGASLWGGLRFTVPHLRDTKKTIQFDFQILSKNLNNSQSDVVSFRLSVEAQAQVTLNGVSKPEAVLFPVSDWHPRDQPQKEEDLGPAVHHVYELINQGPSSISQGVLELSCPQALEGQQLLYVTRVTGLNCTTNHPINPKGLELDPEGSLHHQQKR
T1 sequence (P08648 895-1049 partner limits assumed): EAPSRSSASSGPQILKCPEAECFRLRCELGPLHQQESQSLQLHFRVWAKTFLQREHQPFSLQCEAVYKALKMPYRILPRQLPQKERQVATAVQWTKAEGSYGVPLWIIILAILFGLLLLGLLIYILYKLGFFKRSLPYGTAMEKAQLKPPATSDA
T1 sequence (P05556 21-798): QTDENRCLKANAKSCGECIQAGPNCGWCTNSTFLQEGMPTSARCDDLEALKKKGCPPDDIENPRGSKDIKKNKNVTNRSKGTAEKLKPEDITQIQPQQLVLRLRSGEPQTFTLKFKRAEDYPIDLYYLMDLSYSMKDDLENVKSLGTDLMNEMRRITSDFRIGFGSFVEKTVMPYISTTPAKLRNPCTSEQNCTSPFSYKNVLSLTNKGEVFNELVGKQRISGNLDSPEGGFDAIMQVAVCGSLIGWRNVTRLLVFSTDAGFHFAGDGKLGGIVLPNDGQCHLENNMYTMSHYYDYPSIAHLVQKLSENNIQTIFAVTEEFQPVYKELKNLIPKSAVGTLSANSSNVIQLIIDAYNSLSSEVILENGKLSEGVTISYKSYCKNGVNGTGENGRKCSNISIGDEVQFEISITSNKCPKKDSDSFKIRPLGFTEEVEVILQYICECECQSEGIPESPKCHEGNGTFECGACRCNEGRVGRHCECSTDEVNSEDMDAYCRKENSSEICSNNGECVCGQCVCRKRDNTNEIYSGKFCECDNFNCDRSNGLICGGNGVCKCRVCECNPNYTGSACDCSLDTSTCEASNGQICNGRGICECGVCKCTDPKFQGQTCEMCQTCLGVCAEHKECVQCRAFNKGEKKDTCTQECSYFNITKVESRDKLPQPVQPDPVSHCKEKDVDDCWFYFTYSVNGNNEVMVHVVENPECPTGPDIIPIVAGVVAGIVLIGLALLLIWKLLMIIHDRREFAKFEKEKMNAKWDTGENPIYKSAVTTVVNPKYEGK
Description: as §1
The α5β1 integrin was bound to α5 specific antibody-coated wells by incubating 300 μl of a placental extract per well in TBS buffer containing 0.1 M octylglucoside, 1 mM CaCl2, 1 mM MnCl2 and proteinase inhibitors overnight at 4° C., (Koivunen et al., J. Biol. Chem., 268: 20205–20210 (1993). Alternatively, the α5β1 integrin was directly coated on plastic as described above.
The wells were extensively washed with TBS containing 0.1% NP-40. ^125I-labeled fibronectin (100,000 cpm per well) was incubated in the presence of competing peptides for 1 hour at 25° C. in 100 μl volume of TBS containing 0.1% NP-40 and 1 mM MnCl2, as described by Koivunen et al., J. Biol. Chem. 268: 20205–20210 (1993). After repeated washing, the bound radioactivity was quantitated with a gamma counter.
Initially, […] [SEQ ID NO:12] was examined for its ability to inhibit binding of fibronectin, which is the natural ligand for α5β1. […] Following incubation, the wells were washed and bound radioactivity was determined with a gamma counter.

α5β1 integrin [2] = molecular target: T1, α5β1 integrin; assay: Panning and binding of peptide-displaying phage on α5β1 integrin; conditions: phage-displayed sequence
Description: as §1
Peptide libraries were constructed in fuse 5 vector (Scott and Smith, Science 249:386–390 (1990)) as described previously (Koivunen et al., J. Cell Biol., 124:373–380 (1994). The CX5C, CX6C, CX7C and CX9 [SEQ ID NOs:39–42, respectively] libraries were prepared using synthetic oligonucleotides containing core sequences TGT(NNK)5TGT, TGT(NNK)6TGT, TGT(NNK)7TGT and TGT(NNK)9 [SEQ ID NOS:43–46, respectively] (N=equal molar mixture of A, C, G, T; K=G or T), respectively. The oligonucleotides were made double-stranded by PCR amplification with 5 cycles, purified and ligated to the N-terminus of pIII gene of fuse 5 vector. The CX5C, CX6C, CX7C and CX9 [SEQ ID NOS:39–42, respectively] vectors were transfected into MC1061 cells using 16, 60, 263 and 250 electroporations, respectively. Bacteria were cultured for 24 hours in the presence of 20 μg/ml of tetracycline, and phage were collected from the supernatant by precipitation twice with polyethylene glycol. The phage pellets were dissolved at approximately 10^13 transducing units (TU)/ml in TBS buffer containing 0.02% NaN3 and stored at 4° C. The yields of the CX5C, CX6C, CX7C and CX9 [SEQ ID NOS:39–42, respectively] primary libraries were 3.5×10^8, 1.1×10^9, 4.5×10^5 and 3.5×10^8 clones, respectively. […]
as §2, with “Biol., 124:373–380 (1994). Phage binding to α5β1 and αvβ3 were assayed in TBS buffer containing 1% BSA and 1 mM MnCl2 and binding to αvβ5 in the presence of 1 mM CaCl2.” left out

Row | Compound | potency in inhibiting binding of RGD-containing phage to αvβ5 relative to *CRGDC* (αvβ5 integrin) [fold] | inhibition of fibronectin binding to α5β1 (α5β1 integrin [1]) | binding of peptide-displaying phage to the α5β1 integrin (α5β1 integrin [2])
1 | C[C@H](N)C(=O)N[C@H]1CSSC[C@@H](C(=O)NCC(=O)O)NC(=O)[C@H](Cc2ccccc2)NC(=O)[C@@H]2CSSC[C@H](NC(=O)[C@H](CC(=O)O)NC1=O)C(=O)N[C@@H](CCCNC(=N)N)C(=O)NCC(=O)N[C@@H](CC(=O)O)C(=O)N2 (H-ACDCRGDCFCG-OH; disulfide 2-10, 4-8) | 10 | – | –
2 | GACRRETAWACGA | – | equally as well as the cyclic CRGDC | selectively bind
